{"source": "paper PMC6506615", "about": "“Internalization of Erythrocyte Acylpeptide Hydrolase Is Required for Asexual Replication of Plasmodium falciparum” (mSphere, 2019)", "molecular_target": "T1, acylpeptide hydrolase (APEH) (Homo sapiens, UniProt P13798)", "T1 sequence (P13798 1-732)": "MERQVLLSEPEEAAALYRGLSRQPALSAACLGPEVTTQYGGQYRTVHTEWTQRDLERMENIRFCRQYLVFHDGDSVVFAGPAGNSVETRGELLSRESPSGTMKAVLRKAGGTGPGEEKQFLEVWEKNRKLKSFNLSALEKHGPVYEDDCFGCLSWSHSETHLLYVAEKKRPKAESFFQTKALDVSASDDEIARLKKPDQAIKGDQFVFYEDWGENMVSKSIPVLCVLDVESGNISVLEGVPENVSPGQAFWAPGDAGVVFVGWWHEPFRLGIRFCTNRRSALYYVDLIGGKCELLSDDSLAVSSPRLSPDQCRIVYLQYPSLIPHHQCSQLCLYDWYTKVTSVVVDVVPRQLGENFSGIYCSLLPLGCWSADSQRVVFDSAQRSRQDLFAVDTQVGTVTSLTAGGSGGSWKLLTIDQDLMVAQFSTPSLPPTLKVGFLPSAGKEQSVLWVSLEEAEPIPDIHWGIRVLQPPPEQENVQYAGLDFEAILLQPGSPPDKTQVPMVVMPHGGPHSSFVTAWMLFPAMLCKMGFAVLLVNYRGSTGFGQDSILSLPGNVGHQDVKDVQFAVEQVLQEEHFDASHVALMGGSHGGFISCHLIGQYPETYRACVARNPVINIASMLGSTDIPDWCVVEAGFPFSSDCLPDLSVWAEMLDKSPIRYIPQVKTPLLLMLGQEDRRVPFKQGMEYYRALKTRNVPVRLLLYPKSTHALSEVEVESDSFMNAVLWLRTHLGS", "test": "competitive ABPP with TAMRA-FP in human erythrocyte lysate and saponin-isolated parasite lysate; also intact erythrocytes", "assay_type": "biochemical", "data": [{"smiles": "CC(C)CC(O)(CC(C)C)c1cnn(C(=O)N2CCCC2)n1", "note": "[AA74-1]", "values": [{"measurement": "IC50", "value": "7.4 ± 2.4", "unit": "nM"}]}]}
